Structures can show the parent of a compound that is named as a salt. Marks after values point to notes of the source that are not given here.
Legend:
[1] = Maximum aqueous solubility, salt shaken in water at 37° C., filtered, UV; assay type: physicochemical; conditions: 25 mg of dried salt shaken in water at 37° C.
[2] = Stability: HPLC assay before and after drying over phosphorus pentoxide for 1 week; assay type: physicochemical; conditions: listed as TRI 50c Lys salt; for Amount: 5 mg in 5 mL
Experimental: An assay of TRI 50c and its sodium and lysine salts before and after drying.
For sample analysis, 5 mg of dried and non-dried material was weighed in a 5 mL volumetric flask and dissolved in 1 mL acetonitrile and filled up with demineralised water to 5 mL.
The quantitative evaluation was performed using an HPLC-PDA method.

human α-thrombin = biological target: T1, human α-thrombin (Homo sapiens, UniProt P00734); conditions: reported by Deadman et al, J. Med. Chem. 1995; cited from earlier work
T1 construct: 50 μl of human α-thrombin (0.25 NIHμ/ml) was added

Thrombin Time (TT) = experiment: Single oral doses of TGN 167 tablets in healthy male subjects; assay type: in vivo
Experimental: TGN 167 tablets described above were administered via the oral route to 10 healthy male subjects as single doses (randomised double blind placebo controlled study). The group consisted of 10 healthy male volunteers, 9 of whom received active compound and one of whom received placebo. An amendment was introduced for the last panel, allowing 15 subjects (instead of 9) to receive a 600 mg dose. The interval between each dose of TGN 167 was one week minimum. The allocation of the placebo was such that each volunteer would only receive placebo once during the course of the study.
Orally administered doses were: 75 mg (one tablet), 150 mg (two tablets), 300 mg (four tablets) and 600 mg (eight tablets).

[3] = Comparative storage stability of sodium and calcium salts (moisture-permeable packaging); assay type: physicochemical
Text: In both studies the active pharmaceutical ingredient was stored in gray sealed double bags within a PE/PP screw cap closed cylinder.

[4] = Solubility of TRI 50c monosodium salt at different pH values / reconstitution; assay type: physicochemical
Text: A first class of formulation, therefore, comprises particulate formulations, i.e. powders and granules, for oral administration after reconstitution into a liquid preparation, and preferably into a drinkable preparation. It is generally preferred for the liquid preparation to be a solution rather than a suspension and certain particulate formulations are for dissolving to form a drinking solution. The formulation may be for reconstitution into a suspension or more normally a solution having a volume of from about 50 ml to about 150 ml. The disclosure also contemplates reconstituted volumes of less than about 50 ml or of more than about 150 ml, e.g. of up to about 250 ml and more often of up to about 200 ml.
However, a solution with a pH of 9.5 will often be undesirably distasteful to drink. Accordingly, a pharmaceutically acceptable organic acid may be included in the particulate formulation in an amount selected to reduce the pH to a value at which the solution is more palatable but at which a solution of drinkable quantity (e.g. about 50 ml to about 150 ml) may be formed by reconstituting the particulate formulation. As the organic acid may be mentioned citric acid, tartaric acid or malic acid, for example. In many instances, citric acid is chosen.
In a first series of experiments, this amount of the salt was dissolved in 50 ml water to form a solution of approximately pH 9.5. Dilute aqueous HCl was added to determine how much the pH could be reduced before precipitation occurred.
In a second series of experiments, the same amount of the salt was dissolved in 150 ml water, and citric acid was added. […] Since acid solutions tend to be more palatable than alkaline ones, and citric acid is a common flavouring agent, this behaviour of the salt is highly beneficial. […] In general, it is contemplated that the boronate will be formulated to form a reconstituted solution having a pH of from 4 to 8, e.g. 4 to 7, optionally 5 to 6.

[5] = Excretion of administered dose as TRI 50c species; conditions: in vivo
[6] = dry (1 week over phosphorus pentoxide)

COCCC[C@H](NC(=O)[C@@H]1CCCN1C(=O)[C@@H](Cc1ccccc1)NC(=O)OCc1ccccc1)B(O)O [Lithium Salt of TRI50C]
observation on dissolution [1]: left a white residue of undissolved material

COCCC[C@H](NC(=O)[C@@H]1CCCN1C(=O)[C@@H](Cc1ccccc1)NC(=O)OCc1ccccc1)B(O)O [Lysine Salt of TRI50C]
Amount [2, 6]: 813.3 µg/mL
Purity [2, 6]: 90.17 % area
Amount ([2]; non-dried): 809.8 µg/mL
Purity ([2]; non-dried): 92.25 % area

CNC[C@H](O)[C@@H](O)[C@H](O)[C@H](O)CO.COCCC[C@H](NC(=O)[C@@H]1CCCN1C(=O)[C@@H](Cc1ccccc1)NC(=O)OCc1ccccc1)B(O)O [N-METHYL-D-GLUCAMINE SALT OF TRI50C]
observation on dissolution [1]: fully dissolve

COCCC[C@H](NC(=O)[C@@H]1CCCN1C(=O)[C@@H](Cc1ccccc1)NC(=O)OCc1ccccc1)B([O-])O.[K+] [Potassium Salt of TRI50C]
observation on dissolution [1]: left a white residue of undissolved material

COCCCC(NC(=O)C1CCCN1C(=O)C(Cc1ccccc1)NC(=O)OCc1ccccc1)B1OC(C)(C)C(C)(C)O1 [TRI 50b, Cbz-(R)-Phe-Pro-BoroMpg-OPinacol]
Ki (human α-thrombin): 7 nM

COCCC[C@H](NC(=O)[C@@H]1CCCN1C(=O)[C@@H](Cc1ccccc1)NC(=O)OCc1ccccc1)B([O-])O.COCCC[C@H](NC(=O)[C@@H]1CCCN1C(=O)[C@@H](Cc1ccccc1)NC(=O)OCc1ccccc1)B([O-])O.[Ca+2] [TRI 50c calcium salt]
observation on dissolution [1]: left a white residue of undissolved material
time at which all TT had returned to baseline (Thrombin Time (TT); after oral administration): 10 h
adverse clinical events (general or cardiovascular) (Thrombin Time (TT); oral, any dose, study period of 24 hours): no adverse clinical events
Tri50c (w/w %, LOD corrected) ([3]; T = 0, LOD = loss on drying): (99.7) w/w %
Tri50c (w/w %, LOD corrected) ([3]; T = 1, 25° C./60% r.h.): (101.5) w/w %
Tri50c (w/w %, LOD corrected) ([3]; T = 1, 40° C./75% r.h.): (100.6) w/w %
Tri50c (w/w %, LOD corrected) ([3]; T = 1, −20° C.): (102.7) ^x w/w %
Tri50c (w/w %, LOD corrected) ([3]; T = 3, 25° C./60% r.h.): (104.3) w/w %
Tri50c (w/w %, LOD corrected) ([3]; T = 3, 40° C./75% r.h.): (82.0) w/w %
Tri50c (w/w %, LOD corrected) ([3]; T = 3, −20° C.): (103.0) ^x w/w %
Tri50c (w/w %, LOD corrected) ([3]; T = 12, 25° C./60% r.h.): (94.8 w/w) w/w %

COCCC[C@H](NC(=O)[C@@H]1CCCN1C(=O)[C@@H](Cc1ccccc1)NC(=O)OCc1ccccc1)B(O)O.[Na+] [TRI 50c monosodium salt, Cbz-(R)-Phe-(S)-Pro-(R)-Mpg-B(OH)2 monosodium salt]
observation on dissolution [1]: left a white residue of undissolved material
concentration of boronate salt solution formed ([4]; at a pH of about 9.5): up to 600 mg/ml
pH of solution ([4]; salt equivalent to 600 mg TRI 50c dissolved in 10 ml water): 9.88
pH of solution ([4]; salt equivalent to 600 mg TRI 50c dissolved in 50 ml water): ~9.5
administered dose excreted as TRI 50c species [5]: 14%
Tri50c (w/w %, LOD corrected) ([3]; T = 0, LOD = loss on drying): 101.5 w/w %
Tri50c (w/w %, LOD corrected) ([3]; T = 1, 25° C./60% r.h.): 103.6 w/w %
Tri50c (w/w %, LOD corrected) ([3]; T = 1, 40° C./75% r.h.): 94.5 w/w %
Tri50c (w/w %, LOD corrected) ([3]; T = 1, −20° C.): 104.3 w/w %
Tri50c (w/w %, LOD corrected) ([3]; T = 3, 25° C./60% r.h.): 100.4 w/w %
Tri50c (w/w %, LOD corrected) ([3]; T = 3, 40° C./75% r.h.): 52.2 w/w %
Tri50c (w/w %, LOD corrected) ([3]; T = 12, 25° C./60% r.h.): 71.2 w/w %
